Results on 30 compounds are retold here after US4966916A (priority 1989, dated 1990).

“Also recorded” adds a separate entry of the source. Like-named read-outs stand apart in the source and are kept apart here. Where only a bound is given, the exact number is not on record here.

In general, IC50 refers to the concentration needed to halve the response being measured. For orientation: Kd means the constant that tells how readily two partners part at equilibrium. Lower therefore signals higher affinity.

In one series the test system is rats. Also noted: species or system Sprague-Dawley male rats. Conditions: rat, in vivo.
Series [1] deals with nicotine-induced prostration in rats. Also noted: species or system Sprague-Dawley male rats. Conditions: rat, in vivo.
The test system of series [2] is nicotinic cholinergic and nicotine-like binding sites in rat brain membranes.
Series [3] concerns the target nicotine receptor, rat brain membranes. The series is classed as binding.
Series [4] has the same target. The series is classed as binding. This is another data set of the same source.
For another series, the system named is rats or mice. To be noted: in vivo; cited from earlier work.
The subject of series [5] is nicotine receptor, rat brain membranes. The series is classed as binding. To be noted: for IC50: read-out: [3H]-MCC IC50.
The test system is the same in series [6]. The series is classed as binding. To be noted: for IC50: read-out: [3H]-nicotine IC50.
Series [7] has as its system nicotine-induced seizures in rats. Conditions: rat, in vivo.
Series [8] deals with nicotine mortality in rats. Conditions: rat, in vivo.
Series [9] deals with hypertensive action of nicotine in anesthetized rats. In words: animal or person. Conditions: Rattus norvegicus, iv.
For series [10] the test system is unchanged. To be noted: rat, in vivo, iv.
Series [11] has as its system [3H]-nicotine binding sites in rat brain membranes.
Setting [12] is: read-out: 3H-Nicotine Binding IC50.

With `CN(C)c1cccnc1` [3-dimethylaminopyridine], the “action on prostration” value in the series on rats is on record as “agonists”.
As for `CN(C)C(=O)Oc1cccc([N+](C)(C)C)c1` [prostigmin], in series [1], the “antagonist activity” value was “inactive”.
Consider `[3H]C([3H])([3H])[N+](C)(C)CCOC(=O)NC` [[^3 H]-MCC, [^3 H]-methylcarbamyl choline], for which, in [2], the “Bmax (Scatchard analysis)” value is on record as 4.0×10^-14 moles/mg protein. For the same compound, in series [2] (brain membranes), the “rate constant for association” value was determined as 300000 M⁻¹ s⁻¹ and the “rate constant for dissociation” value stood at 0.001 s⁻¹.
On to `CNC(=O)OC1CCN(Cc2ccccc2)CC1` [N-benzyl-4-piperdyl methylcarbamate], for which the IC50 in series [3] (setting [12]) and in series [4] (read-out: 3H-MCC Binding IC50) was > 100 µM throughout.
`CCN(CC)CC(=O)Nc1c(C)cccc1C` [lidocaine]: in series [1], the “antagonist activity” value is “inactive”.
Take `C[N+]1(C)CCCC1c1cccnc1` (stereo not shown) [N'-methyl nicotonium]: the “seizures and mortality relative to nicotine” value in the series on rats or mice was “more potent than nicotine in producing seizures and mortality”.
In the case of `CNC(=O)Oc1ccc2c(c1)[C@]1(C)CCN(C)[C@@H]1N2C` [physostigmin], the “antagonist activity” value in series [1] was “inactive”.
Take `CCN1CCCC1c1cccnc1` (stereo not shown) [N'-ethyl nornicotine]: the “decrease in affinity versus nicotine” value in [5] and in [6] was 3 fold each time. Further, the IC50 in series [5] and in series [4] (read-out: 3H-MCC Binding IC50) was 0.1 µM in each case.
Take `COC(=O)[C@H]1[C@@H](OC(=O)c2ccccc2)C[C@@H]2CC[C@H]1N2C` [cocaine]: in series [1], the “antagonism of nicotine-induced prostration / nicotine actions” value is on record as “effectively block nicotine-induced prostration” and the “antagonist activity” value was “inactive”.
Turning to `CN(C)CCOC(=O)c1ccccc1` [DMAE benzoate, dimethylaminoethyl benzoate], in series [7], the “% Antagonism of seizures” value stood at 45% and the “Seizures (rats with seizures/total)” value is 5/9.
For the compound `CN1[C@@H]2CC[C@H]1C[C@@H](OC(=O)C(CO)c1ccccc1)C2` (stereo partly shown) [atropine], in [7], the “% Antagonism of seizures” value is recorded as 0% and the “Seizures (rats with seizures/total)” value is on record as 6/6. Further, the “protection against nicotine mortality” value in [8] is on record as “ineffective”.
With `CN1[C@@H](CC(=O)c2ccccc2)CCC[C@H]1C[C@H](O)c1ccccc1` [α-lobeline], in [7], the “% Antagonism of seizures” value was 0/8, the “Seizures (rats with seizures/total)” value is 1/8 and the “protection against seizures” value is listed as “complete protection against seizures”. In addition, in series [8], the “% Antagonism of mortality” value came to 75%, the “Mortality (dead/total)” value was 2/10 and the “reduction of the mortality” value stood at 75%. Besides, in [1], the “antagonist activity” value is “most effective antagonist in blocking the prostration, seizures, and mortality”; the “dose blocking nicotine-induced prostration” value was determined as 10 nmol. Further, the “binding affinity” value in [3] is “even greater affinity than (-)-nicotine; also recorded: very high affinity for brain nicotine receptors”.
For the compound `CCCN1CCCC1c1cccnc1` (stereo not shown) [N'-propyl nornicotine], the “decrease in affinity versus nicotine” value in [5] and in series [6] was 200 fold in each case.
Take α-bungarotoxin: the IC50 in series [5] is > 100 µM. Also, in series [6], the Kd is > 100 µM and the IC50 was > 100 µM.
For `CN(C)CCOC(=O)C1CCCCC1` [DMAE cyclohexylcarboxylate, dimethylaminoethyl cyclohexylcarboxylate], in series [7], the “% Antagonism of seizures” value was 50%, the “Seizures (rats with seizures/total)” value was 4/8 and the “seizures” value is “about half of the rats exhibited seizures”.
As for DMAE naphthoate [DMAE napththoate], the values for the IC50 in [3] (setting [12]) and in [4] (read-out: 3H-MCC Binding IC50) were 80 µM and 70 µM, respectively.
Consider `C[N+](C)(C)CCOC(=O)Cc1ccccc1` [TMAE phenylacetate], for which, in series [1], the “antagonism of nicotine-induced prostration / nicotine actions” value is “next in effectiveness”.
Regarding `CN(C)CCOC(=O)c1cccnc1` [DMAE nicotinate], the “antagonism of nicotine-induced prostration / nicotine actions” value in series [1] is “next in effectiveness; also recorded: antagonistic to the nicotine-induced prostration”.
For `C[N+](C)(C)CCCCCC[N+](C)(C)C` [hexamethonium], the IC50 in series [5] is > 100 µM. In series [6], the Kd is > 100 µM and the IC50 is > 100 µM.
Consider `C[N+](C)(C)CCOC(=O)C1CCCCC1` [TMAE cyclohexylcarboxylate, choline ester of cyclohexylcarboxylic acid], for which the ED100 in series [9] (read-out: Antagonistic dose (±s.d.) to completely block elevation in systolic blood pressure) came out at 5 ± 1.5 mg/kg; in series [9] (read-out: dose completely reversing increase in systolic blood pressure) it was 1.5 mg/kg. Also, the “% Antagonism of seizures” value in series [7] is reported as 78%. In [7], the “Seizures (rats with seizures/total)” value is on record as 1/8. In addition, the “protection against nicotine mortality” value in series [8] was determined as 66%.
Regarding `C[N+](C)(C)CCOC(=S)Nc1ccccc1` [TMAE phenylthiocarbamate], in series [8], the “% Antagonism of mortality” value came to 63%, the “Mortality (dead/total)” value is given as 3/10 and the “protection against nicotine mortality” value worked out at 63%. In [1], the “antagonism of nicotine-induced prostration / nicotine actions” value is given as “next in effectiveness”.
For the compound TMAE naphthoate [TMAE napththoate], the IC50 in series [3] (setting [12]) worked out at 9 µM; in series [4] (read-out: 3H-MCC Binding IC50), 5 µM.
Consider `CCN(CC)CCOC(=O)c1ccc(N)cc1` [procaine], for which, in series [1], the “antagonism of nicotine-induced prostration / nicotine actions” value was “effectively block nicotine-induced prostration” and the “antagonist activity” value is “antagonists”.
Turning to N-benzylpiperidyl methylcarbamate, the IC50 in [3] (setting [12]) and in series [4] (read-out: 3H-MCC Binding IC50) was > 100 µM throughout.
In the case of `C[N+](C)(C)CCOC(=O)c1ccccc1` [TMAE benzoate, benzoylcholine], in [7], the “% Antagonism of seizures” value was 78% and the “Seizures (rats with seizures/total)” value is 1/8. In addition, in series [8], the “% Antagonism of mortality” value amounted to 63%, the “Mortality (dead/total)” value is 3/10 and the “protection against nicotine mortality” value is listed as 63%. Moreover, the “effectiveness relative to the DMAE ester” value in series [1] is 5 times.
With `CN1CCCC1c1cccnc1` (single isomer, unassigned; (-)) [(-)-nicotine], in series [7], the “symptoms” value was “prostration followed by tremors, fasciculations, cyanosis and labored breathing, and myoclonic seizures”. For the same compound, the “Seizures (rats with seizures/total)” value in series [7] (1.5 mg/kg) was 10/10. In the series on rats, the “action on prostration” value was “agonists”; the “behavioral / respiratory effects” value was “deep diaphragmatic breathing and a decreased respiratory rate”. In series [8] (ip, 3 mg/kg), the “Mortality (dead/total)” value was 8/10. Also, in [10], the “increase in systolic blood pressure” value is given as 25%.
On to `C[N+](C)(C)CCOC(=O)Nc1ccccc1` [TMAE phenylcarbamate], for which, in [7], the “% Antagonism of seizures” value stood at 89%, the “Seizures (rats with seizures/total)” value is 1/9 and the “protection against seizures” value was “almost complete protection”. Moreover, in series [8], the “% Antagonism of mortality” value was 50%, the “Mortality (dead/total)” value is 4/10 and the “protection against nicotine mortality” value was 50%. In [1], the “antagonism of nicotine-induced prostration / nicotine actions” value is reported as “next in effectiveness”.
On to `C[N+](C)(C)CCOC(=O)CCC(=O)OCC[N+](C)(C)C` [TMAE succinate, succinylcholine], for which the 50% inhibitory concentration (IC50) in series [3] (setting [12]) was 0.8 µM; in series [3] (read-out: IC50 for 3H-nicotine) it was ~50 µM; in series [4] (read-out: 3H-MCC Binding IC50), 0.7 µM; in series [4] (read-out: IC50 for 3H-MCC) it was ~50 µM.
As to `CN(C)CCOC(N)=O` [DMAE carbamate], the “behavioral effect” value with rats is recorded as “only a similar effect”.
In the case of `CN1CCCC1c1cccnc1` (single isomer, unassigned; (-)) [[^3 H]-nicotine, (-)-[^3 H]-nicotine], in series [11], the “Bmax, higher affinity site” value is 5e-15 mol/mg.
